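Cultured in 96-well plates, cells were exposed to test compound for 48 hours across five concentrations. TGI: concentration producing complete growth inhibition.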
Assays:
Test in all cases: growth of human tumour cells (NCI), 48 h
NCI-H460 lung = system: NCI-H460 lung
MOLT-4 leukemia = system: MOLT-4 leukemia
IGROV1 ovarian = system: IGROV1 ovarian
SF-539 CNS = system: SF-539 CNS
NCI-H226 lung = system: NCI-H226 lung
RXF 393 renal = system: RXF 393 renal
SN12C renal = system: SN12C renal
UACC-62 melanoma = system: UACC-62 melanoma
SF-295 CNS = system: SF-295 CNS
ACHN renal = system: ACHN renal
OVCAR-4 ovarian = system: OVCAR-4 ovarian
SF-268 CNS = system: SF-268 CNS
OVCAR-5 ovarian = system: OVCAR-5 ovarian
COLO 205 colon = system: COLO 205 colon
SNB-75 CNS = system: SNB-75 CNS
EKVX NSCLC = system: EKVX NSCLC
PC-3 prostate = system: PC-3 prostate
DU-145 prostate = system: DU-145 prostate
HS 578T breast = system: HS 578T breast
T-47D breast = system: T-47D breast

Row | SMILES | TGI (NCI-H460 lung) [µM] | TGI (MOLT-4 leukemia) [µM] | TGI (IGROV1 ovarian) [µM] | TGI (SF-539 CNS) [µM] | TGI (NCI-H226 lung) [µM] | TGI (RXF 393 renal) [µM] | TGI (SN12C renal) [µM] | TGI (UACC-62 melanoma) [µM] | TGI (SF-295 CNS) [µM] | TGI (ACHN renal) [µM] | TGI (OVCAR-4 ovarian) [µM] | TGI (SF-268 CNS) [µM] | TGI (OVCAR-5 ovarian) [µM] | TGI (COLO 205 colon) [µM] | TGI (SNB-75 CNS) [µM] | TGI (EKVX NSCLC) [µM] | TGI (PC-3 prostate) [µM] | TGI (DU-145 prostate) [µM] | TGI (HS 578T breast) [µM] | TGI (T-47D breast) [µM]
1 | CC(=O)OC[C@]1(C)CCCC2(C)C1CCC1C=C(C)[C@H]3CCC12C3 (stereo partly drawn) | > 100 | > 100 | > 100 | 66.8 | > 100 | > 100 | > 100 | > 100 | > 100 | > 100 | > 100 | > 100 | > 100 | > 100 | 93.2 | – | – | – | – | –
2 | C=CCN1C(=O)/C(=C\c2cc(C(C)(C)C)c(O)c(C(C)(C)C)c2)NC1=S | 36.8 | > 100 | > 100 | > 100 | 74.9 | – | > 100 | 33.1 | 68.3 | 90.2 | > 100 | > 100 | > 100 | 32.4 | – | 65.1 | 42 | 90.3 | > 100 | –
3 | CC12CCC(C(Nc3cc(C(F)(F)F)cc(C(F)(F)F)c3)C1=O)C2(C)C (stereo not drawn) | > 100 | > 100 | > 100 | > 100 | > 100 | – | – | > 100 | > 100 | > 100 | > 100 | > 100 | > 100 | > 100 | – | > 100 | > 100 | > 100 | – | > 100
4 | COC(=O)C1=CSC2(S1)C(C(=O)OC)=CSc1c2ssc1=O (stereo not drawn) | 24.5 | > 19.8 | 2.9 | 3.17 | 44.9 | 3.62 | 5.1 | 4.16 | 40.5 | 3.61 | 3.81 | 8.89 | 21.9 | 4.03 | 8.16 | 14.5 | 6.03 | 3.3 | 12.3 | –
5 | Nc1nc(Cl)c(/C=N\O)c(NCC2(CO)CCC2)n1 | > 100 | 81.2 | – | > 100 | > 100 | > 100 | > 100 | – | > 100 | > 100 | > 100 | > 100 | > 100 | > 100 | > 100 | > 100 | > 100 | > 100 | > 100 | –
6 | O=S(=O)(c1ccccc1)C(c1ccc2ccccc2n1)S(=O)(=O)c1ccccc1 | > 100 | > 100 | > 100 | > 100 | > 100 | > 100 | > 100 | – | > 100 | > 100 | > 100 | > 100 | > 100 | > 100 | > 100 | > 100 | > 100 | > 100 | > 100 | –
7 | Cc1ccccc1NC(=O)c1c(C)oc2c1C(=O)c1ccccc1C2=O | > 100 | 47.4 | > 100 | > 68.5 | > 100 | > 100 | > 100 | 49.8 | > 100 | > 100 | > 100 | > 100 | > 100 | > 100 | > 100 | > 100 | – | – | – | –
8 | COc1ccc2cc3[nH]c(=O)cc(O)c3cc2c1OC | > 100 | > 100 | > 100 | > 100 | > 100 | > 100 | > 100 | > 100 | > 100 | > 100 | > 100 | > 100 | > 100 | – | > 100 | > 100 | – | – | – | –
9 | Nn1c(CCCCCCCCc2nnc(COc3ccc4ccccc4c3O)n2N)nnc1COc1ccc2ccccc2c1O | > 100 | > 100 | 38.3 | – | 79.1 | 80.3 | > 100 | > 100 | 98.1 | > 100 | > 100 | > 100 | 37 | 35.1 | > 100 | > 100 | > 100 | > 100 | – | –
10 | CN(C)CC1CN=C(N)O1 (stereo not drawn) | > 100 | > 100 | – | > 100 | > 100 | > 100 | > 100 | > 100 | > 100 | > 100 | > 100 | > 100 | > 100 | > 100 | – | > 100 | > 100 | > 100 | – | –
11 | NC(=O)c1cc2ccc(O)cc2o/c1=N/NC(=O)c1ccccc1 | > 100 | > 100 | > 100 | – | > 100 | > 100 | > 100 | > 100 | > 100 | > 100 | > 100 | > 100 | > 100 | > 100 | > 100 | > 100 | > 100 | – | > 100 | 91.4
12 | CC(=O)NC1=C(NC(C)(C)C)C(=O)c2ccccc2C1=O | 41.1 | 26.7 | 70.4 | 33.3 | 27.6 | 33.3 | 34.8 | 27.3 | > 100 | > 100 | 36.6 | 55.6 | > 100 | > 100 | 26.5 | 99.2 | – | – | – | –
13 | O=C(O)C1CCCCC1C(=O)Nn1cnnc1 (stereo not drawn) | – | > 100 | > 100 | > 100 | – | > 100 | > 100 | > 100 | > 100 | > 100 | > 100 | > 100 | > 100 | > 100 | > 100 | > 100 | > 100 | > 100 | – | –
14 | C=CC1CCC[N+]1(CC(=O)OCC)Cc1ccccc1 (stereo not drawn) | > 100 | > 100 | > 100 | – | > 100 | – | > 100 | > 100 | > 100 | > 100 | > 100 | > 100 | > 100 | > 100 | > 100 | > 100 | > 100 | > 100 | – | > 100
